Test results as given in patent US20120010285A1, “AGENT FOR PROMOTING ENERGY CONSUMPTION” (KAO CORPORATION, priority 2009, published 2012).

Experiments:
ACC2 mRNA = assay: Expression of ACC2 mRNA in cultured mouse liver cell line Hepa1-6 (quantitative PCR); format: cell-based; conditions: Hepa1-6 cells, each of the chlorogenic acids (Production Example 4) 5 mM, 24 hours, control at 100
Method: (§1) A cultured mouse liver cell line (Hepa1-6 cell) was cultured in 10% bovine serum-containing Dulbeco's Modified Eagle's Medium (DMEM) at 37° C., 5% CO2. The cells were seeded in a 6-well plate, and when they reached subconfluency, the medium was replaced by a serum free medium (DMEM, -FBS), followed by culturing for further 12 hours. Subsequently, various samples were added (final concentration: chlorogenic acids (Production Example 1) 2.5×10^−4% (w/v) and each of the chlorogenic acids (Production Example 4) 5 mM), and after 24 hours of culturing, total RNA was prepared according to a standard method. After preparing cDNA by reverse transcription reaction, quantitative PCR was performed by ABI PRISM 7000 Sequence Detection System (Applied Biosystems) using Power SYBR Green Master Mix (Applied Biosystems). Also, the expression level of each gene was corrected using the expression level of 36B4 as an internal standard, and represented as a relative expression level by setting the expression level of control at 100.

PDK4 mRNA = assay: Expression of PDK4 mRNA in cultured mouse liver cell line Hepa1-6 (quantitative PCR); format: cell-based; conditions: Hepa1-6 cells, each of the chlorogenic acids (Production Example 4) 5 mM, 24 hours, control at 100
Method: as §1

Row | Structure (SMILES) | expression of ACC2 mRNA (ACC2 mRNA) | expression of PDK4 mRNA (PDK4 mRNA)
1 | O=C(/C=C/c1ccc(O)c(O)c1)O[C@@H]1[C@H](O)C[C@@](O)(C(=O)O)C[C@H]1OC(=O)/C=C/c1ccc(O)c(O)c1 [3,4-dicaffeoylquinic acid] | significantly reduced | significantly inhibited
2 | O=C(/C=C/c1ccc(O)c(O)c1)O[C@@H]1CC(O)(C(=O)O)C[C@@H](OC(=O)/C=C/c2ccc(O)c(O)c2)C1O (some centres unmarked) [3,5-dicaffeoylquinic acid] | significantly reduced | 
3 | O=C(/C=C/c1ccc(O)c(O)c1)O[C@@H]1C[C@](O)(C(=O)O)C[C@@H](O)[C@H]1O [3-caffeoylquinic acid] | significantly reduced | significantly inhibited
4 | O=C(/C=C/c1ccc(O)c(O)c1)O[C@H]1[C@H](O)C[C@](O)(C(=O)O)C[C@H]1OC(=O)/C=C/c1ccc(O)c(O)c1 [4,5-dicaffeoylquinic acid] | significantly reduced | 
5 | O=C(/C=C/c1ccc(O)c(O)c1)O[C@H]1[C@H](O)C[C@](O)(C(=O)O)C[C@H]1O [4-caffeoylquinic acid] | significantly reduced | significantly inhibited
